These results are taken from article PMC11111955, “Safety and efficacy evaluation of halicin as an effective drug for inhibiting intestinal infections” (Frontiers in Pharmacology, 2024).

The subject of data set [1] is TA100. Description: Ames test. The format is cell-based, Salmonella typhimurium. On the procedure: (§1) The experiments were performed in triplicate.
A general note: The Ames test uses bacterial strains that need an amino acid and regain growth without it when mutated back.

Data set [2] relates to TA98. The data set can be described thus: Ames test. The class given is cell-based, Salmonella typhimurium. The method, then: as §1

With `Nc1nnc(Sc2ncc([N+](=O)[O-])s2)s1` [halicin], the “Ames test bacterial counts” value in data set [1] (TA100, +S9, 5.6 μg/plate) worked out at 171 ± 11.3; in data set [1] (TA100, +S9, 11.2 μg/plate), 152 ± 12.7; in data set [1] (TA100, +S9, 22.5 μg/plate), 0 ± 0; in data set [1] (TA100, +S9, 45 μg/plate), 0 ± 0; in data set [1] (TA100, -S9, 5.6 μg/plate), 121 ± 9.9; in data set [1] (TA100, -S9, 11.2 μg/plate), 0 ± 0. Besides, the “Ames test bacterial counts” value amounted to 0 ± 0 in data set [1] (TA100, -S9, 22.5 μg/plate); 0 ± 0 in data set [1] (TA100, -S9, 45 μg/plate); 30 ± 12.7 in data set [2] (TA98, +S9, 5.6 μg/plate); 43 ± 8.5 in data set [2] (TA98, +S9, 11.2 μg/plate); 53 ± 7.1 in data set [2] (TA98, +S9, 22.5 μg/plate); 0 ± 0 in data set [2] (TA98, +S9, 45 μg/plate). The “Ames test bacterial counts” value in data set [2] (TA98, -S9, 5.6 μg/plate) came out at 27 ± 2.8; in data set [2] (TA98, -S9, 11.2 μg/plate), 61 ± 14.1; in data set [2] (TA98, -S9, 22.5 μg/plate), 55 ± 5.7; in data set [2] (TA98, -S9, 45 μg/plate) it was 0 ± 0.
